From paper PMC5829162, “Rational Design, Synthesis and Biological Evaluation of Pyrimidine-4,6-diamine derivatives as Type-II inhibitors of FLT3 Selective Against c-KIT” (Scientific Reports, 2018)
Read-outs that look alike come from different tables or passages of the source.

What was measured:
[1] = target: c-KIT (Homo sapiens, UniProt P10721); test: Biochemical kinase selectivity assay, c-KIT
[2] = target: RET (Homo sapiens, UniProt P07949); test: Biochemical kinase selectivity assay, RET; conditions: in vitro kinase assay; read-out: RET IC50 (nM) ± SD
RET, sequence (P07949 29-1114, species assumed): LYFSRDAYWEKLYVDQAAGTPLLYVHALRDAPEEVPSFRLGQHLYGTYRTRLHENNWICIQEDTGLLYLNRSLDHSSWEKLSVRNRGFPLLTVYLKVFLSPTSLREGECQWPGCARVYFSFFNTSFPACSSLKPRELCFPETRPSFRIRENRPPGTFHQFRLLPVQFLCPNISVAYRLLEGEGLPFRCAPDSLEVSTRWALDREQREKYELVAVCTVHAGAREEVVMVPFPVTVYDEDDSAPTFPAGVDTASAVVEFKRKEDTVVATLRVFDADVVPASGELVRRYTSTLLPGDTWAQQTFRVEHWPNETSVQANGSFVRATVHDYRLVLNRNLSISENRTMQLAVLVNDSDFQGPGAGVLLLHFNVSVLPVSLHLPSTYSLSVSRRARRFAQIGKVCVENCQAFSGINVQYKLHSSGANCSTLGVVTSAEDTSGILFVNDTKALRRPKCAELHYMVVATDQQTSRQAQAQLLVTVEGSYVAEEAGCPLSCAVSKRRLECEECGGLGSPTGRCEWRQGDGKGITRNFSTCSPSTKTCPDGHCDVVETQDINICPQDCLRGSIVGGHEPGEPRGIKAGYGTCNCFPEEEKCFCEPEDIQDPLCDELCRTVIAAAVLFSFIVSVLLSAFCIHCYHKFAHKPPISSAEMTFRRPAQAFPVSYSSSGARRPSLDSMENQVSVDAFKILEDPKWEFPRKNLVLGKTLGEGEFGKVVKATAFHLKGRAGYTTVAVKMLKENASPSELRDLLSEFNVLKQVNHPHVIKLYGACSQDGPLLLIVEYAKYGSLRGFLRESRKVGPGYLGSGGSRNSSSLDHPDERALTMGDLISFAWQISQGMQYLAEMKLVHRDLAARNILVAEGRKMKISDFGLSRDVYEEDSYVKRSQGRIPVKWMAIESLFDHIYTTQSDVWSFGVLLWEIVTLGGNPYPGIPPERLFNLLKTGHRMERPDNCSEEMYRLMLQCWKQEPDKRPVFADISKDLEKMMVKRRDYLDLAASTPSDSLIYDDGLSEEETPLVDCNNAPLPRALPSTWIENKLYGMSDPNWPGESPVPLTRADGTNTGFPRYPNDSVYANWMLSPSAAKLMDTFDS

[3] = system: Ba/F3 FLT3-ITD; test: Cell proliferation (CellTiter-Glo, 48 h), Ba/F3 FLT3-ITD; type: cell-based
Excerpt: (§1) Stable BaF3 populations expressing activated FLT3 were generated by retroviral spinfection with the appropriate mutated plasmid followed by selection and growth factor withdrawal as previously described. The BaF3 cell line was originally obtained from the laboratory of Charles Sawyers and has not been authenticated. MV411 and Molm14 cells were obtained from the laboratory of Scott Kogan and authenticated by Promega STR analysis in June 2013. All cell lines were mycoplasma-free. Cells were incubated with compounds for 48 hours and proliferation was assessed using CellTiter-Glo (Promega; Madison, WI) according to the manufacturer’s recommendation on a SpectraMax M3 microplate reader using SpectraMax Software (Molecular Devices; Sunnyvale, CA). All cell viability data shown is reflective of experiments performed a minimum of three times. […]
(§2) S13. Cell Cultures: Stable BaF3 populations expressing activated FLT3 were generated by retroviral spinfection with the appropriate mutated plasmid followed by selection and growth factor withdrawal as previously described .4 The BaF3 cell line was originally obtained from the laboratory of Charles Sawyers and has not been authenticated. MV411 and Molm14 cells were obtained from the laboratory of Scott Kogan and authenticated by Promega STR analysis in June
(§3) 2013. All cell lines were mycoplasma -free. Cells were incubated with compounds for 48 hours and proliferation was assessed using CellTiter -Glo (Promega; Madison, WI) according to the manufacturer’s recommendation on a SpectraMax M3 microplate reader using SpectraMax Software (Molecular Devices; Sunnyvale, CA). All cell viability data shown is reflective of experiments performed a minimum of three times.

[4] = system: Molm14 par; test: Cell proliferation (CellTiter-Glo, 48 h), Molm14 par; type: cell-based; conditions: Homo sapiens, MOLM-14
Excerpt: as §1, §2, §3

[5] = system: Molm14^D835Y; test: Cell proliferation (CellTiter-Glo, 48 h), Molm14 D835Y; type: cell-based; conditions: for GI50: Homo sapiens, MOLM-14, Molm14^D835Y, 48 hours
Excerpt: as §1, §2, §3

[6] = system: Molm14^F691L; test: Cell proliferation (CellTiter-Glo, 48 h), Molm14 F691L; type: cell-based; conditions: for GI50: Homo sapiens, MOLM-14, Molm14^F691L, 48 hours
Excerpt: as §1, §2, §3

[7] = system: MV4–11 AML cells; test: Cell proliferation (CellTiter-Glo, 48 h), MV4-11; type: cell-based; conditions: Homo sapiens; MV4–11, 48 hours
Excerpt: as §1, §2, §3

c-KIT, sequence (P10721 26-976): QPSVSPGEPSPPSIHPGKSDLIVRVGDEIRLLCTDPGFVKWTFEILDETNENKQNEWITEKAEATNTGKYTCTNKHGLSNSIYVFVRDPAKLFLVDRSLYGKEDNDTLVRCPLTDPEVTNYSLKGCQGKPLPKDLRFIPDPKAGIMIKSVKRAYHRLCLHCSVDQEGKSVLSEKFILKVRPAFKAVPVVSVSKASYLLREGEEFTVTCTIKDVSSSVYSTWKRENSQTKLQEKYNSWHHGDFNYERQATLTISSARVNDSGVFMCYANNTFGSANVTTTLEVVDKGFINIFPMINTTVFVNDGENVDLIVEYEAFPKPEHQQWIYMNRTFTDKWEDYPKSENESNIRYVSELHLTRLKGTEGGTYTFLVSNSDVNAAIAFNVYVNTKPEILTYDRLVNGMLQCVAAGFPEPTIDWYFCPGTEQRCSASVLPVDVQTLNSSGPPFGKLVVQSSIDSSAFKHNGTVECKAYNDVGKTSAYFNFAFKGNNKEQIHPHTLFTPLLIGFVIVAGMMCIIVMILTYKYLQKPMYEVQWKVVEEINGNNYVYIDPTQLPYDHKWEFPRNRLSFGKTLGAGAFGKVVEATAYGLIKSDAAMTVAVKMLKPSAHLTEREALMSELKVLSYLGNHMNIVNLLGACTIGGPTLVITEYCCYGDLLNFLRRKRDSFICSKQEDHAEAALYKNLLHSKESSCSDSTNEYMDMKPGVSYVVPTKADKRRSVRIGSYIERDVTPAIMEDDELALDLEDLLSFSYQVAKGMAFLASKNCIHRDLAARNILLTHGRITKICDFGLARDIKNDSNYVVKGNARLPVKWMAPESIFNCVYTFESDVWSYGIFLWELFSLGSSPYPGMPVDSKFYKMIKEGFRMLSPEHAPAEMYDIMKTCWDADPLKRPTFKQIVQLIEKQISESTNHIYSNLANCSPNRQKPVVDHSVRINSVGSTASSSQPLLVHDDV

Row | SMILES | IC50 ([1]; as printed in Fig. 2, read-out: cKit IC50) | IC50 ([1]; in vitro kinase assay, read-out: c-KIT IC50 (nM) ± SD) | selectivity for FLT3 over c-KIT ([1]; in vitro kinase assays) | IC50 [2] | GI50 [3] | GI50 [4] | GI50 [5] | fold reduction in cellular activity against Molm14^D835Y ([5]; relative to the parental FLT3-ITD cells) | GI50 [6] | fold reduction in cellular activity against Molm14^F691L ([6]; gatekeeper mutation, relative to the parental FLT3-ITD cells) | GI50 [7]
1 | Cn1nc(C(C)(C)C)cc1NC(=O)Cc1ccc(Nc2cc(Nc3ccc(S(C)(=O)=O)cc3)ncn2)cc1 [13a, 2-(4-(6-(4-(Methylsulfonyl)phenylamino)pyrimidin-4-ylamino)phenyl)-N-(3-tert-butyl-1-methyl-1H-pyrazol-5-yl)acetamide] | 8800 nM | 8800 nM | > 500 fold | 4710 ± 342 nM | 131 nM | 24.4 nM | 1840 nM | ~ 10 fold | 1340 nM | ~ 10 fold | 9.9 nM
2 | CC(C)(C)c1cc(NC(=O)Cc2ccc(Nc3cc(Nc4ccc(S(C)(=O)=O)cc4)ncn3)cc2)no1 [13k, 2-(4-(6-(4-(Methylsulfonyl)phenylamino)pyrimidin-4-ylamino)phenyl)-N-(5-tert-butylisoxazol-3-yl)acetamide] | – | – | – | 1660 nM | 40.5 nM | 19.8 nM | 2610 nM | – | 2140 nM | – | 7.2 nM
